From patent publication US20060083714A1, “Combination of a pde iv inhibitor and a tnf-alpha antagonist” (priority 2003, published 2006)

How the values were obtained:
[1] = tested on: PDE IV; test: Inhibition of PDE isoenzymes: PDE IV (PDE4, cytosol of human neutrophils, cAMP substrate); assay type: biochemical
Description: PDE inhibition is then determined by the presence or absence of substrate degradation products. […] The relative ability of an inhibitory compound to slow or prevent the degradation of tritiated cyclic nucleotides is one test that is indicative of how well the compound in question selects one or more of each isoform to inhibit.
In practice, the in vitro selectivity of a PDE IV inhibitor may vary depending upon the condition under which the test is performed and on the inhibitors being tested. However, for the purposes of this specification, the selectivity of a PDE IV inhibitor can be measured as a ratio of the in vitro IC50 value for inhibition of any other isoform of the phosphodiesterase enzyme (Z) other than PDE IV, divided by the IC50 value for inhibition of PDE IV (PDE Z IC50/PDE IV IC50), where Z identifies any PDE other than PDE IV. As used herein, the term “IC50” refers to the concentration of a compound that is required to produce 50% inhibition of phosphodiesterase activity. […]
After preincubation for 5 min at 37° C., the reaction isstarted by the addition of substrate (cAMP or cGMP) and the assays are incubated for further 15 min at 37° C. […] The columns are elutedwith 2 ml of 30 mM ammonium formate (pH 6.0) and the eluate is counted for radioactivity. Results are corrected for blank values (measured in the presence of denatured protein) that are below 5% of total radioactivity. […]

[2] = tested on: T1, PDE IV; conditions: reported in Hatzelmann et al., JPET 297(1):267-279 (2001); read-out: IC50 for roflumilast activity on PDE IV; cited from earlier work
T1 construct: other: reported in Hatzelmann et al., JPET 297(1):267-279 (2001)

[3] = tested on: PDE I; conditions: reported in Hatzelmann et al., JPET 297(1):267-279 (2001); read-out: IC50 for roflumilast activity on PDE I; cited from earlier work

O=C(Nc1c(Cl)cncc1Cl)c1ccc(OC(F)F)c(OCC2CC2)c1 [roflumilast, 3-(cyclopropylmethoxy)-N-(3,5-dichloropyridin-4-yl)-4-(difluoromethoxy) benzamide]
selectivity for PDE IV as compared with PDE V (PDE V IC50/PDE IV IC50) ([1]; 8/0.0008): at least 10,000
selectivity for PDE IV as compared with PDE I (PDE I IC50/PDE IV IC50) ([1]; >10/0.0008): at least 12,500
IC50 [2]: 0.8 nM
IC50 [3]: > 10 µM
